Data as given in patent publication US20230096028A1, “BICYCLIC HETEROCYCLYL COMPOUNDS AND USES THEREOF” (Revolution Medicines, Inc., priority 2019, published 2023).
Read-outs that look alike come from different tables or passages of the source.

Legend:
[1] = target: T1, SOS1 catalytic domain (residues 564-1049) (Homo sapiens, UniProt Q07889); assay: Potency Assay: binding affinity to SOS1 using Surface Plasmon Resonance (SPR); set-up: SOS1 catalytic domain (residues 564-1049) immobilized on a sensor chip; settings: immobilized SOS1 catalytic domain (residues 564-1049), read-out: SOS1 SPR Equilibrium Kd
T1 sequence (Q07889 564-1049): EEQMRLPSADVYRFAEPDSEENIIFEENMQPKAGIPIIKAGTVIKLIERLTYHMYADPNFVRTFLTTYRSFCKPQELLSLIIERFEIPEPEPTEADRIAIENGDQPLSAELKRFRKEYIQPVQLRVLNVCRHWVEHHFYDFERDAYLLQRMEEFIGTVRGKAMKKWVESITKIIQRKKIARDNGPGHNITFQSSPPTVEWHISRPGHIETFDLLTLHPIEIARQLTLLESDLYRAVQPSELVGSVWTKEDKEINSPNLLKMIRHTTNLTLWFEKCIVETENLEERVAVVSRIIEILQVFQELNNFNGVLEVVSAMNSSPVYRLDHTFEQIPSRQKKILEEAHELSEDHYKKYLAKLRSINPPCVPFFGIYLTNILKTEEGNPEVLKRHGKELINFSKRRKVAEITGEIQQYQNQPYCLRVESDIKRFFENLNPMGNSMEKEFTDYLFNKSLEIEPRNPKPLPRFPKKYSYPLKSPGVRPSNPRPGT
Method in brief: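 Kd was obtained by plotting binding response, taken just before association ended, versus compound concentration on a Biacore 8K. Compounds flowed at 50 μL/min over streptavidin-captured avi-SOS1 catalytic domain (~6000 RU), followed by buffer dissociation; HEPES 0.01 M/NaCl 0.15 M/0.05% P20 buffer, double-referenced.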

[2] = target: T1, SOS1 catalytic domain (residues 564-1049); assay: Mode of Action Assay: inhibition of SOS1 nucleotide exchange activity (SOS1 TR-FRET IC50 Assay)
[3] = tested on: PC-9 cells (EGFR Ex19Del); assay: Potency Assay: pERK (SOS1 pERK IC50 Assay, AlphaLISA SureFire Ultra p-ERK1/2); type: cell-based; settings: Homo sapiens, read-out: SOS1 pERK IC50
Method in brief: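 Cellular pERK1/2 by AlphaLISA SureFire Ultra after 1 h compound exposure (37° C., highest concentration 10 μM, 3-fold steps, duplicates) of EGFR Ex19Del PC-9 cells seeded the day before. A 4-parameter fit of signal versus log concentration gives IC50.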

[4] = PC-9 cells (EGFR Ex19Del), 1 hour incubation, AlphaLISA p-ERK1/2

Compound | Kd [1] [nM] | IC50 [2] [nM] | IC50 [3, 4] [nM] | IC50 ([3]; PC-9, 1 h) [nM]
C[C@@H](Nc1nc(Cl)nc2c1CN(S(=O)(=O)C1CC(F)(F)C1)CC2)c1cc(N)cc(C(F)(F)F)c1 [Example 456] | < 400 | < 1000 | < 1000 | 
C[C@@H](Nc1nc(Cl)nc2c1CN(C(=O)N1CCOCC1)C2)c1cccc(C(F)(F)C2COCCN2C)c1 (stereo partly drawn) [Example 460, (2-chloro-4-(((1R)-1-(3-(difluoro(4-methylmorpholin-3-yl)methyl)phenyl)ethyl)amino)-5,7-dihydro-6H-pyrrolo[3,4-d]pyrimidin-6-yl)(morpholino)methanone] | < 400 | < 1000 | < 1000 | 
O=C(N1CCOCC1)N1Cc2nc(Cl)nc(NC(CF)c3cccc(C(F)(F)CO)c3)c2C1 (stereo not drawn) [Example 463, (2-chloro-4-((1-(3-(1,1-difluoro-2-hydroxyethyl)phenyl)-2-fluoroethyl)amino)-5,7-dihydro-6H-pyrrolo[3,4-d]pyrimidin-6-yl)(morpholino)methanone] | < 400 | < 1000 | > 1000 | 
C[C@@H](Nc1nc(Cl)nc2c1CN(C(=O)N1CCOCC1)C2)c1cccc2c1OCC2(F)F [Example 466, [2-chloro-4-[[(1R)-1-(3,3-difluoro-2H-benzofuran-7-yl)ethyl]amino]-5,7-dihydropyrrolo[3,4-d]pyrimidin-6-yl]-morpholino-methanone] | < 400 | < 1000 | < 1000 | 
C[C@@H](Nc1nc(Cl)nc2c1CN(C(=O)N1CCOCC1)C2)c1cccc(C(F)(F)COC2CC2)c1F [Example 469, [2-chloro-4-[[(1R)-1-[3-[2-(cyclopropoxy)-1,1-difluoro-ethyl]-2-fluoro-phenyl]ethyl]amino]-5,7-dihydropyrrolo[3,4-d]pyrimidin-6-yl]-morpholino-methanone] | < 400 | < 1000 |  | < 1000
CCC(Nc1nc(Cl)nc2c1CN(C(=O)N1CCOCC1)C2)c1cc(N)cc(C(F)(F)F)c1 (stereo not drawn) [Example 470, N-{1-[3-amino-5-(trifluoromethyl)phenyl]propyl}-2-chloro-6-(morpholine-4-carbonyl)-5H,6H,7H-pyrrolo[3,4-d]pyrimidin-4-amine] | > 400 | < 1000 |  | < 1000
CC(Nc1nc(Cl)nc2c1CN(C(=O)N1CCOCC1)C2)c1cccc2c1OCCC2(F)F (stereo not drawn) [Example 476, 2-chloro-N-[1-(4,4-difluoro-3,4-dihydro-2H-1-benzopyran-8-yl)ethyl]-6-(morpholine-4-carbonyl)-5H,6H,7H-pyrrolo[3,4-d]pyrimidin-4-amine] | < 400 | < 1000 | > 1000 | 
C[C@@H](Nc1nc(Cl)nc2c1CN(C(=O)N1CCOCC1)C2)c1cccc(C(C)(C)C#N)c1 [Example 482, 2-{3-[(1R)-1-{[2-chloro-6-(morpholine-4-carbonyl)-5H,6H,7H-pyrrolo[3,4-d]pyrimidin-4-yl]amino}ethyl]phenyl}-2-methylpropanenitrile] | > 400 | < 1000 |  | > 1000
C[C@@H](Nc1nc(Cl)nc2c1CN(C(=O)N1CCOCC1)C2)c1cccc(C(F)(F)C2CNCCO2)c1 (stereo partly drawn) [Example 484, 2-chloro-N-[(1R)-1-{3-[difluoro(morpholin-2-yl)methyl]phenyl}ethyl]-6-(morpholine-4-carbonyl)-5H,6H,7H-pyrrolo[3,4-d]pyrimidin-4-amine] | < 400 | < 1000 |  | < 1000
C[C@@H](Nc1nc(Cl)nc2c1CN(C(=O)N1CCOCC1)C2)c1cccc(C(F)F)c1 [Example 486, 2-chloro-N-[(1R)-1-[3-(difluoromethyl)phenyl]ethyl]-6-(morpholine-4-carbonyl)-5H,6H,7H-pyrrolo[3,4-d]pyrimidin-4-amine] | < 400 | < 1000 | > 1000 | 
Cc1c(C(F)F)cccc1[C@@H](C)Nc1nc(Cl)nc2c1CN(C(=O)N1CCOCC1)C2 [Example 492] | < 400 | < 1000 | < 1000 | 
C[C@@H](Nc1nc(Cl)nc2c1CN(C(=O)N1CCOCC1)C2)c1cccc(C(F)(F)C(C)(C)O)c1F [Example 493] | < 400 | < 1000 | < 1000 | 
C[C@@H](Nc1nc(Cl)nc2c1CN(C(=O)N1CCOCC1)C2)c1cccc(C(F)(F)F)c1F [Example 496] | > 400 | < 1000 | < 1000 | 

Second part, led by results:

Kd [1] [nM] | IC50 [2] [nM] | IC50 [3, 4] [nM] | Compound | IC50 ([3]; PC-9, 1 h) [nM]
< 400 | < 1000 | < 1000 | C[C@@H](Nc1nc(Cl)nc2c1CN(S(=O)(=O)CCO)CC2)c1cc(N)cc(C(F)(F)F)c1 [Example 457] | 
< 400 | < 1000 | < 1000 | C[C@@H](Nc1nc(Cl)nc2c1CN(S(=O)(=O)c1c[nH]cn1)CC2)c1cc(N)cc(C(F)(F)F)c1 [Example 458] | 
< 400 | < 1000 | > 1000 | C[C@@H](Nc1nc(Cl)nc2c1CN(C(=O)N1CCOCC1)C2)c1cccc(C(C)(F)F)c1 [Example 467, [2-chloro-4-[[(1R)-1-[3-(1,1-difluoroethyl)phenyl]ethyl]amino]-5,7-dihydropyrrolo[3,4-d]pyrimidin-6-yl]-morpholino-methanone] | 
< 400 | < 1000 | < 1000 | C[C@@H](Nc1nc(Cl)nc2c1CN(C(=O)N1CCOCC1)C2)c1cccc2c(F)coc12 [Example 468, [2-chloro-4-[[(1R)-1-(3-fluorobenzofuran-7-yl)ethyl]amino]-5,7-dihydropyrrolo[3,4-d]pyrimidin-6-yl]-morpholino-methanone] | 
< 400 | < 1000 | < 1000 | COC1(C(=O)N2Cc3nc(Cl)nc(NC(C)c4cccc(C(F)(F)CO)c4F)c3C2)CCOCC1 (stereo not drawn) [Example 471, 2-[3-(1-{[2-chloro-6-(4-methoxyoxane-4-carbonyl)-5H,6H,7H-pyrrolo[3,4-d]pyrimidin-4-yl]amino}ethyl)-2-fluorophenyl]-2,2-difluoroethan-1-ol] | 
< 400 | < 1000 | < 1000 | Cc1c([C@@H](C)Nc2nc(Cl)nc3c2CN(C(=O)N2CCOCC2)C3)cccc1C(F)(F)F [Example 477, 2-chloro-N-[(1R)-1-[2-methyl-3-(trifluoromethyl)phenyl]ethyl]-6-(morpholine-4-carbonyl)-5H,6H,7H-pyrrolo[3,4-d]pyrimidin-4-amine] | 
< 400 | < 1000 | < 1000 | C[C@@H](Nc1nc(Cl)nc2c1CN(C(=O)N1CCOCC1)C2)c1cccc(C(C)(F)F)c1F [Example 478, 2-chloro-N-[(1R)-1-[3-(1,1-difluoroethyl)-2-fluorophenyl]ethyl]-6-(morpholine-4-carbonyl)-5H,6H,7H-pyrrolo[3,4-d]pyrimidin-4-amine] | 
< 400 | < 1000 | < 1000 | C[C@@H](Nc1nc(Cl)nc2c1CN(C(=O)N1CCOCC1)C2)c1cccc(C(F)(F)COC2COC2)c1 [Example 479, 2-chloro-N-[(1R)-1-{3-[1,1-difluoro-2-(oxetan-3-yloxy)ethyl]phenyl}ethyl]-6-(morpholine-4-carbonyl)-5H,6H,7H-pyrrolo[3,4-d]pyrimidin-4-amine] | 
< 400 | < 1000 | > 1000 | C[C@@H](Nc1nc(Cl)nc2c1CN(C(=O)N1CCOCC1)C2)c1cccc(C(F)(F)CN(C)C)c1 [Example 483, 2-chloro-N-[(1R)-1-{3-[2-(dimethylamino)-1,1-difluoroethyl]phenyl}ethyl]-6-(morpholine-4-carbonyl)-5H,6H,7H-pyrrolo[3,4-d]pyrimidin-4-amine] | 
< 400 | < 1000 | < 1000 | C[C@@H](Nc1nc(Cl)nc2c1CN(C(=O)N1CCOCC1)C2)c1cccc(C(F)(F)C2CN(C)CCO2)c1 (stereo partly drawn) [Example 485, 2-chloro-N-[(1R)-1-{3-[difluoro(4-methylmorpholin-2-yl)methyl]phenyl}ethyl]-6-(morpholine-4-carbonyl)-5H,6H,7H-pyrrolo[3,4-d]pyrimidin-4-amine] | 
< 400 | < 1000 | < 1000 | COC1(C(=O)N2Cc3nc(Cl)nc(N[C@H](C)c4cccc(C(F)F)c4F)c3C2)COC1 [Example 489] | 
< 400 | < 1000 | < 1000 | COC1(C(=O)N2Cc3nc(Cl)nc(N[C@H](C)c4cccc5c4OCC5(F)F)c3C2)CCOCC1 [Example 490] | 
< 400 | < 1000 | < 1000 | C[C@@H](Nc1nc(Cl)nc2c1CN(C(=O)N1CCOCC1)C2)c1cccc(C(F)(F)C2CCCO2)c1 (stereo partly drawn) [Example 491] | 
